# Literature values, collected in US11737976B2, “Drug delivery means” (priority 2006, dated 2023).
# Read-outs that look alike come from different tables or passages of the source.
# Assays:
# [1] = test system: endothelial and smooth muscle cells
# [2] = test system: arterial smooth muscle cell
# [3] = test system: oxidized cholesterols present in the plasma; conditions: increased concentrations of vitamin E in the blood; some oxidized cholesterols, not all; not reversed once packed into plaques
compound,measurement,setting,value
"CC(C)CCC[C@@H](C)[C@H]1CC[C@H]2[C@@H]3C(=O)C=C4C[C@@H](O)CC[C@]4(C)[C@H]3CC[C@]12C [7-Keto, 5-Cholesten-3β-ol-7-one]",cytotoxicity relative to the other oxidized cholesterols studied,cells,most cytotoxic
same,induction of apoptosis,[1],able to induce apoptosis
same,apoptosis in fibroblasts,fibroblasts,did not cause apoptosis
"CC(C)CCC[C@@H](C)[C@H]1CC[C@H]2[C@@H]3[C@@H](O)C=C4C[C@@H](O)CC[C@]4(C)[C@H]3CC[C@]12C [7B, 7β-hydroxycholesterol]",induction of apoptosis,[1]; cells of the vascular wall,able to induce apoptosis
same,apoptosis in fibroblasts,fibroblasts; necrosis occurred instead,did not cause apoptosis
"C[C@H](CCCC(C)(C)O)[C@H]1CC[C@H]2[C@@H]3CC=C4C[C@@H](O)CC[C@]4(C)[C@H]3CC[C@]12C [25OH, 25-hydroxycholesterol]",changes in the arterial smooth muscle cell,[2],causes changes
vitamin E,lowering the amount of oxidized cholesterols in plasma,[3],effective in lowering the amount of some oxidized cholesterols
